Source: patent publication US10844052B2, “LLS compounds for treatment of cancer” (THE REGENTS OF THE UNIVERSITY OF CALIFORNIA, priority 2016, dated 2020)
Blank lines part the entries; values can stand above or below the molecule they belong to.

Key:
SKOV3 cells = experiment: In vitro combination of LLS2 with paclitaxel on SKOV3 cells; format: cell-based
Source text: C.I.<0.9 indicates synergism, C.I.=0.9-1.10 indicates additive interaction, and C.I.>1.1 indicates antagonism.
The synergistic effects of LLS2 with current chemotherapeutic drugs including docetaxel, paclitaxel, 5-Fu, oxaliplatin, carboplatin, doxorubicin and gemcitabine were examined in vitro.

[1] = test system: prostate cancer PC3 cancer cells
[2] = test system: sNF96.2 malignant peripheral nerve sheath tumor (MPNST) cells; experiment: Cytotoxicity against sNF96.2 MPNST cells; format: cell-based
Protocol: (§1) The biochemical and biological effects of LLS30 on sNF96.2 and sNF2.2 malignant peripheral nerve sheath tumor (MPNST) cells were evaluated.

ERK phosphorylation = experiment: Phosphorylation of ERK / MEK/ERK pathway in MPNST cells; format: cell-based
Protocol: (b) LLS30 exerts death on MPNST cells.
as §1

SKOV3 = experiment: Anti-cancer activity against ovarian cancer cells SKOV3 (cell killing in solution / in vitro cell proliferation); format: cell-based
Protocol: (§2) Biotinylated LLS2 was synthesized in solution and loaded it onto a streptavidin-coated plate. The biotinylated LLS2 immobilized on the plate killed approximately 21% of SKOV3 ovarian cancer cells at 100 μM loading, 16% at 50 μM and 14% at 25 μM (FIG. 4). The killing effect of the LLS2 compound was also tested in solution. […] In addition, LLS2 can kill pancreatic cancer cell line XPA3, prostate cancer cell line PC3, colon cancer cell line HT29, breast cancer cell line MCF7 and lung cancer cell line A549 (FIG. 4).

[3] = Combination of LLS30 with Enzalutamide; format: cell-based
[4] = test system: 22RV1 prostate cancer cells; experiment: Cell viability of prostate cancer 22RV1 cells after 72 hours treatment; format: cell-based; settings: Homo sapiens
PC3 tumor = experiment: In vivo efficacy study of LLS30 on PC3 tumor
[5] = test system: sNF2.2 malignant peripheral nerve sheath tumor (MPNST) cells; experiment: Cytotoxicity and PTX combination on sNF2.2 MPNST cells; format: cell-based
Protocol: as §1

PC3 = experiment: In vitro cell proliferation / killing assay on PC3 prostate cancer cells; format: cell-based
Protocol: as §2

[6] = test system: PC3 prostate cancer cells; experiment: Cell viability of prostate cancer PC3 cells after 72 hours treatment; format: cell-based; settings: Homo sapiens
Protocol: Effects of compounds LLS42-LLS80 on the viability of PC3 prostate cancer cells after 72 hours of treatment are shown in Table 2 below: […]

N-Ras(Q61D) = N-Ras(Q61D) localization; format: cell-based
Source text: (§3) (b) Once activated by EGF, H-Ras will be partially trafficked to the plasma membrane leading to the activation of Erk pathway. […] (c) Quantification of membrane associated H-Ras (active form) by immunoblot analysis after treatment with buffer (−) or LLS2 (+), showing that LLS2 was able to lower the level of membrane-associated H-Ras. (d) LLS2 also miscolocalized the EGF-stimulated K-Ras(G12V) but not N-Ras(Q61D).
(§4) LLS2 treatment also miscolocalizes the EGF-stimulated K-Ras(G12V), whereas the localization of EGF-stimulated N-Ras(Q61D) is not changed (FIG. 9d). […] Without being bound to any particular theory, this implies that LLS2 induces cell death through suppression of the RAS-ERK pathway.

XPA3 = experiment: Cell killing by soluble LLS2, pancreatic cancer cell line XPA3; format: cell-based
Protocol: as §2

SKOV3 xenograft tumors = experiment: SKOV3 xenograft in nude mice, LLS2 alone or with paclitaxel; format: in vivo
Source text: Briefly, 2.5×10^6 SKOV3 cells were subcutaneously injected to the right side of the dorsal flank of the female congenital athymic BALB/c nude mice. The tumors were allowed to grow to about 100 mm^3.
Then, mice were randomly divided into control and treatment groups (n=5). Mice were given a daily I.V. administration for 5 successive days.
SKOV3 ovarian cancer cells were subcutaneously injected on the dorsal flanks of mice.

MCF7 = experiment: Cell killing by soluble LLS2, breast cancer cell line MCF7; format: cell-based
Protocol: as §2

[7] = test system: Human umbilical vascular endothelial cells (HUVECs); experiment: HUVEC tube-formation assay on Matrigel-coated plates; format: cell-based
Protocol: Human umbilical vascular endothelial cells (HUVECs) we used for tube-formation assays on Matrigel-coated plates as shown in FIG. 10. The expression level of secreted gal-1 in 6 different cancer cell lines was determined using ELISA assay.

GFP-H-Ras(12V) = experiment: H-Ras localization (real time confocal) and membrane-associated H-Ras immunoblot; format: cell-based
Source text: as §3, §4

A549 = experiment: Cell killing by soluble LLS2, lung cancer cell line A549; format: cell-based
Protocol: as §2

galectin-1 = target: T1, galectin-1 (Homo sapiens, UniProt P09382); experiment: Pull-down with biotinylated LLS2, LC MS/MS and anti-galectin-1 immunoblot; format: binding; settings: biotinylated LLS2, cell membrane protein preparation
T1 construct: endogenous in cells
T1 sequence (P09382 whole entry): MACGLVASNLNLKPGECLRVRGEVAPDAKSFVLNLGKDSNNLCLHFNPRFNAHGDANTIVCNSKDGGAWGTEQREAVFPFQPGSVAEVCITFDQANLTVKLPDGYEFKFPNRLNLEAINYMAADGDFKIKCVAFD
Protocol: LLS2 was biotinylated, incubated with a cell membrane protein preparation, and bound proteins were pulled down with immobilized streptavidin resin. The bound proteins were eluted and subjected to identification by LC MS/MS. The MS result identified galectin-1 as the putative target protein of LLS2 (FIG. 8a). The identity of galectin-1 as the target protein of LLS2 was confirmed by immunoblot analysis of proteins eluted from (i) blank streptavidin-beads, (ii) biotin-LLS2/streptavidin beads, and (iii) biotinylated unrelated small molecule/streptavidin beads, using anti-galectin-1 antibody as the western blot probe (FIG. 8b).

HT29 = experiment: Cell killing by soluble LLS2, colon cancer cell line HT29; format: cell-based
Protocol: as §2

K-Ras(G12V) = K-Ras(G12V) localization and Ras activity assay; format: cell-based
Source text: as §3, §4

[8] = test system: phospho-MEK and phospho-ERK; experiment: Expression level of phospho-MEK and phospho-ERK after LLS2; format: cell-based; settings: treatment for 2 hours
Source text: as §3, §4

[9] = Homo sapiens, SK-OV-3, ovarian cancer cells SKOV3

SMILES: CC(=O)O[C@H]1C(=O)[C@@]2(C)[C@H]([C@H](OC(=O)c3ccccc3)[C@]3(O)C[C@H](OC(=O)[C@H](O)[C@@H](NC(=O)c4ccccc4)c4ccccc4)C(C)=C1C3(C)C)[C@]1(OC(C)=O)CO[C@@H]1C[C@@H]2O [Paclitaxel, reference compound]
- cytotoxicity, single agent (SKOV3 cells; SKOV3 cells, at particular concentrations): little effect
- cytotoxicity, single agent [1]: moderate cytotoxicity

- CBC, platelets, liver function tests and renal panel (PC3 tumor; after 4 courses of treatment): remained within normal limits
SMILES: NC(=O)CC(NCc1ccc(Cl)c(Cl)c1)c1ccc2c(c1)nc(-c1ccc(N(CCO)CCO)cc1)n2Cc1ccc(Cl)c(Cl)c1 (stereo not shown) [LLS30, 3-(2-(4-(bis(2-hydroxyethyl)amino)phenyl)-1-(3,4-dichlorobenzyl)-1H-benzo[d]imidazol-5-yl)-3-((3,4-dichlorobenzyl)amino)propanamide]
- IC50 [2]: 16 µM
- MEK/ERK pathway (ERK phosphorylation; 2 μM, MPNST cells (FIG. 12 legend)): suppresses
- Phosphorylation of ERK (ERK phosphorylation; 24 hrs treatment, 25 μM, MPNST cells): totally suppressed
- IC50 (SKOV3; [9]): 10.2 µM
- potency relative to LLS2 (SKOV3; in vitro cell proliferation assays): about 2 fold
- anti-cancer effect in combination with Enzalutamide [3]: synergistic anti-cancer effect
- viability at 2.5 µM ([4]; 2.5 μM): 47%
- viability at 5 µM ([4]; 5 μM): 3%
- viability at 10 µM ([4]; 10 μM): 0%
- growth of PC3 tumor (PC3 tumor; 10 mg/kg, i.v. q3d×4): significantly suppressed
- Ki-67 in tumor (PC3 tumor; LLS30-treated tumor): down-regulated
- cleaved caspase-3 in tumor (PC3 tumor; LLS30-treated tumor): more cleaved caspase-3 positive cells
- PC3 tumor response, combination with PTX (PC3 tumor; LLS30 with PTX, i.v. q3d×4): tumor regression
- histological analysis of the resected tumor (PC3 tumor; necrotic cells): many necrotic cells were present
- IC50 [5]: 26 µM
- C.I. (combination index) with PTX ([5]; LLS30 with PTX): 0.1
- IC50 (PC3; Homo sapiens, PC-3): 9.2 µM
- viability at 2.5 µM ([6]; PC-3, 2.5 μM): 100%
- viability at 5 µM ([6]; PC-3, 5 μM): 95%
- viability at 10 µM ([6]; PC-3, 10 μM): 73%
- viability at 20 µM ([6]; PC-3, 20 μM): 10%

SMILES: CC(=O)OCCN(CCOC(C)=O)c1ccc(-c2nc3cc(C(CC(N)=O)NC(=O)[C@@H](N)Cc4ccc(F)c(F)c4)ccc3n2Cc2ccc(F)c(F)c2)cc1 (stereo partly drawn) [LLS11, ((4-(5-(3-amino-1-((S)-2-amino-3-(3,4-difluorophenyl)propanamido)-3-oxopropyl)-1-(3,4-difluorobenzyl)-1H-benzo[d]imidazol-2-yl)phenyl)azanediyl)bis(ethane-2,1-diyl) Diacetate]
- IC50 (SKOV3; [9]): > 50 µM

SMILES: COc1ccc(C[C@@H](N)C(=O)NC(CC(N)=O)c2ccc3c(c2)nc(-c2cccc(Cn4ccnc4)c2)n3CCc2ccccn2)cc1 (stereo partly drawn) [LLS1, (2R)—N-(1-(2-(3-((1H-imidazol-1-yl)methyl)phenyl)-1-(2-(pyridin-2-yl)ethyl)-1H-benzo[d]imidazol-5-yl)-3-amino-3-oxopropyl)-2-amino-3-(4-methoxyphenyl)propanamide]
- IC50 (SKOV3; [9]): 29.5 µM

SMILES: CC(=O)OCCN(CCOC(C)=O)c1ccc(-c2nc3cc(C(N)CC(N)=O)ccc3n2Cc2ccc(C(F)(F)F)c(F)c2)cc1 (stereo not shown) [LLS22, ((4-(5-(1,3-diamino-3-oxopropyl)-1-(3-fluoro-4-(trifluoromethyl)benzyl)-1H-benzo[d]imidazol-2-yl)phenyl)azanediyl)bis(ethane-2,1-diyl) Diacetate]
- IC50 (SKOV3; [9]): > 50 µM

SMILES: CC(=O)OCCN(CCO)c1ccc(-c2nc3cc(C(CC(N)=O)NCc4ccc(Cl)c(Cl)c4)ccc3n2Cc2ccc(F)c(Cl)c2)cc1 (stereo not shown) [LLS34, 2-((4-(5-(3-amino-1-((3,4-dichlorobenzyl)amino)-3-oxopropyl)-1-(3-chloro-4-fluorobenzyl)-1H-benzo[d]imidazol-2-yl)phenyl)(2-hydroxyethyl)amino)ethyl Acetate]
- IC50 (SKOV3; [9]): 8.9 µM

SMILES: CC(=O)OCCN(CCOC(C)=O)c1ccc(-c2nc3cc(C(CC(N)=O)NC(=O)[C@@H](N)Cc4ccc(Cl)c(Cl)c4)ccc3n2Cc2ccc(F)c(F)c2)cc1 (stereo partly drawn) [LLS2, ((4-(5-(3-amino-1-((S)-2-amino-3-(3,4-dichlorophenyl)propanamido)-3-oxopropyl)-1-(3,4-difluorobenzyl)-1H-benzo[d]imidazol-2-yl)phenyl)azanediyl)bis(ethane-2,1-diyl) Diacetate]
- localization of EGF-stimulated N-Ras(Q61D) (N-Ras(Q61D)): not changed
- cell killing (XPA3): can kill
- tolerability (body weight) (SKOV3 xenograft tumors; LLS2/paclitaxel combination regimen, nude mice): tolerable and without significant side effects
- tumor size and weight (SKOV3 xenograft tumors; LLS2 alone, daily I.V. for 5 successive days, SKOV3 xenograft): smaller tumor size
- tumor growth (SKOV3 xenograft tumors; combination LLS2/paclitaxel compared to either alone, SKOV3 xenograft): significant suppression of tumor growth
- IC50 (SKOV3; [9]): 15.7 µM
- IC50 (SKOV3; ovarian cancer cells SKOV3): 18.7 µM
- cell killing (MCF7): can kill
- angiogenic effect of added gal-1 [7]: inhibited
- tube-formation activity of PC3 conditioned medium ([7]; 10 μM): neutralized
- membrane-localized H-Ras (GFP-H-Ras(12V); 25 μM, 15 mins treatment, EGF-activated): loss of membrane-localized H-Ras
- localization of EGF-stimulated GFP-H-Ras(12V) (GFP-H-Ras(12V); 25 μM, 30 min): mis-localizes to intracellular compartments
- membrane-associated H-Ras (GFP-H-Ras(12V); LLS2-treated vs non-treated MDCK cells): significant down-expression of H-Ras
- cell killing (A549): can kill
- target protein identified by pull-down / immunoblot (galectin-1): target protein of LLS2 was indeed galectin-1
- cell killing (HT29): can kill
- localization of EGF-stimulated K-Ras(G12V) (K-Ras(G12V)): miscolocalizes
- EGF-stimulated levels of K-Ras-GTP (K-Ras(G12V); Ras activity assays): decreases
- expression level of phospho-MEK and phospho-ERK [8]: down-regulated
- cell killing (PC3; prostate cancer cell line PC3): can kill
- anti-proliferation effect of combined treatment with paclitaxel (SKOV3 cells; SKOV3, LLS2 + paclitaxel): much stronger anti-proliferation effects
- apoptosis after combined LLS2/paclitaxel treatment (SKOV3 cells; SKOV3 cells, 24 hours): Increased apoptosis
- anti-proliferation effect of combined treatment with paclitaxel ([1]; PC3, LLS2 + paclitaxel): much stronger anti-proliferation effects

SMILES: CC(=O)OCCN(CCOC(C)=O)c1ccc(-c2nc3cc(C(CC(N)=O)NCc4ccc(Cl)c(Cl)c4)ccc3n2Cc2ccc(F)c(F)c2)cc1 (stereo not shown) [LLS17, ((4-(5-(3-amino-1-((3,4-dichlorobenzyl)amino)-3-oxopropyl)-1-(3,4-difluorobenzyl)-1H-benzo[d]imidazol-2-yl)phenyl)azanediyl)bis(ethane-2,1-diyl) Diacetate]
- IC50 (SKOV3; [9]): 10.6 µM

SMILES: CC(=O)OCCN(CCO)c1ccc(-c2nc3cc(C(CC(N)=O)NCc4ccc(Cl)c(Cl)c4)ccc3n2Cc2ccc(Cl)c(Cl)c2)cc1 (stereo not shown) [LLS33, 2-((4-(5-(3-amino-1-((3,4-dichlorobenzyl)amino)-3-oxopropyl)-1-(3,4-dichlorobenzyl)-1H-benzo[d]imidazol-2-yl)phenyl)(2-hydroxyethyl)amino)ethyl Acetate]
- IC50 (SKOV3; [9]): 10 µM

SMILES: NC(=O)CC(NCc1ccc(Cl)c(Cl)c1)c1ccc2c(c1)nc(-c1ccc(N(CCO)CCO)cc1)n2Cc1ccc(OC(F)(F)F)cc1 (stereo not shown) [LLS36, 3-(2-(4-(bis(2-hydroxyethyl)amino)phenyl)-1-(4-(trifluoromethoxy)benzyl)-1H-benzo[d]imidazol-5-yl)-3-((3,4-dichlorobenzyl)amino)propanamide]
- IC50 (SKOV3; [9]): > 50 µM

SMILES: CC(=O)OCCN(CCOC(C)=O)c1ccc(-c2nc3cc(C(CC(N)=O)NCc4ccc(Cl)c(Cl)c4)ccc3n2Cc2ccc(F)c(Cl)c2)cc1 (stereo not shown) [LLS21, ((4-(5-(3-amino-1-((3,4-dichlorobenzyl)amino)-3-oxopropyl)-1-(3-chloro-4-fluorobenzyl)-1H-benzo[d]imidazol-2-yl)phenyl)azanediyl)bis(ethane-2,1-diyl) Diacetate]
- IC50 (SKOV3; [9]): 8.9 µM
